Experimental data taken from patent US7211573B2, “Malonamide derivatives” (Hoffmann-La Roche Inc., priority 2004, dated 2007).

**Q.** With `CC(C(=O)NCC(F)(F)C(F)(F)F)C(=O)N[C@@H]1C(=O)N(C)c2c(F)cccc2O[C@@H]1C` (stereo partly drawn) [Example 37, N-((6R,7S)-1-Fluoro-6,9-dimethyl-8-oxo-6,7,8,9-tetrahydro-5-oxa-9-aza-benzocyclohepten-7-yl)-2-methyl-N′-(2,2,3,3,3-pentafluoro-propyl)-malonamide] as the molecule, how does the melting point read?
**A.** 126 to 134 °C

**Q.** Which melting point does the source give for `CC(C(=O)NCC(F)(F)C(F)(F)F)C(=O)N[C@@H]1C(=O)Nc2cc(F)ccc2O[C@@H]1C` (stereo partly drawn) [Example 23, N-((6R,7S)-2-Fluoro-6-methyl-8-oxo-6,7,8,9-tetrahydro-5-oxa-9-aza-benzocyclohepten-7-yl)-2-methyl-N′-(2,2,3,3,3-pentafluoro-propyl)-malonamide] here?
**A.** 215 to 216 °C

**Q.** For `C[C@H](OC(=O)NCC(F)(F)C(F)(F)F)C(=O)N[C@@H]1C(=O)N(C)c2cc(F)ccc2O[C@@H]1C` [Example 48, (2,2,3,3,3-Pentafluoro-propyl)-carbamic acid (S)-1-((6R,7S)-2-fluoro-6,9-dimethyl-8-oxo-6,7,8,9-tetrahydro-5-oxa-9-aza-benzocyclohepten-7-ylcarbamoyl)-ethyl ester], which melting point is on record?
**A.** 148 to 150 °C

**Q.** With `CC(C(=O)NCC(F)(F)C(F)(F)F)C(=O)N[C@@H]1C(=O)N(C)c2cc(F)ccc2O[C@@H]1C` (stereo partly drawn) [Example 38, N-((6R,7S)-2-Fluoro-6,9-dimethyl-8-oxo-6,7,8,9-tetrahydro-5-oxa-9-aza-benzocyclohepten-7-yl)-2-methyl-N′-(2,2,3,3,3-pentafluoro-propyl)-malonamide] as the molecule, how does the melting point read?
**A.** 126 to 134 °C

**Q.** Which melting point does the source give for `Cc1cccc2c1OC[C@H](NC(=O)C(C)C(=O)NCC(F)(F)C(F)(F)F)C(=O)N2C` (stereo partly drawn) [Example 10b, N-((S)-4,9-Dimethyl-8-oxo-6,7,8,9-tetrahydro-5-oxa-9-aza-benzocyclohepten-7-yl)-2-methyl-N′-(2,2,3,3,3-pentafluoro-propyl)-malonamide] here?
**A.** 107 °C

**Q.** With `CCN1C(=O)[C@@H](NC(=O)C(C)C(=O)NCC(F)(F)C(F)(F)F)COc2ccccc21` (stereo partly drawn) [Example 14, N-((S)-9-Ethyl-8-oxo-6,7,8,9-tetrahydro-5-oxa-9-aza-benzocyclohepten-7-yl)-2-methyl-N′-(2,2,3,3,3-pentafluoro-propyl)-malonamide] as the molecule, how does the melting point read?
**A.** 152 °C
